The values below are quoted from earlier work in patent US20230233510A1, “CYSTEINE PROTEASE INHIBITORS FOR USE IN THE PREVENTION AND/OR TREATMENT OF CORONAVIRUS” (ALBERT-LUDWIGS-UNIVERSITÄT FREIBURG, priority 2020, published 2023).

In one data set the test system is SARS-CoV. To be noted: HeLa cells expressing ACE2 and TMPRSS2.
For data set [1], the system named is human coronavirus NL63 (HCoV-NL63). To be noted: HeLa cells expressing ACE2 and TMPRSS2.

For `CN(C)C(=O)COC(=O)Cc1ccc(OC(=O)c2ccc(NC(=N)N)cc2)cc1` [camostat, (4-{2-[2-(Dimethylamino)-2-oxoethoxy]-2-oxoethyl}phenyl)(4-carbamimidamidobenzoate)], the block of infection entry (in the data set on SARS-CoV; in data set [1]) was “partially blocked infection” in each case.
